According to PubChem BioAssay AID463206 (Broad Institute, 2010):
Activity calls are given as the source filed them.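 The calls were made as follows: active = caspase luminescence falls with dose and the half-maximal concentration AC50 from the fitted curve is at or below a set limit; inconclusive = flat fit at 30 to 70% signal loss, or invalid fit; inactive = AC50 above the limit, or signal rises instead.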

Each compound was assayed on INS-1E cytokine-induced caspase-3/7, Caspase-Glo luminescence, 48 h (assay: inhibitors of cytokine-induced caspase-3/7 activity, dose response, orthogonal assay for beta-cell apoptosis protection project, INS-1E rat cells, luminescence (AID 463206)).

Row | SMILES | AC50
1 | Cc1ccc(-c2nc(NC(=O)c3nn(C)cc3[N+](=O)[O-])sc2C)cc1 | > 26 µM (inactive)
2 | COc1ccc(/C=N/Nc2cc(C)nc3ccc(OC)cc23)c(OC)c1 | 10.7 µM
3 | CC(C)(C)c1cc(C=C(C#N)C#N)cc(C(C)(C)C)c1O | > 26 µM (inactive)
4 | O=S(=O)([N-]c1nc2ccccc2nc1-[n+]1ccc(Cc2ccccc2)cc1)c1ccc(Br)s1 | > 26 µM (inactive)
5 | C/C(=N\NC(=O)c1nnn(-c2nonc2N)c1-c1ccccc1)c1ccccc1O | > 26 µM (inactive)
6 | Cc1cc(/C=N/n2c(COc3ccccc3C)nc3ccccc3c2=O)c(O)c([N+](=O)[O-])c1 | > 26 µM (inactive)
7 | COc1ccc2c(C(=O)NCc3ccc4c(c3)OCO4)c(-c3ccc(S(C)(=O)=O)cc3)sc2c1 | > 26 µM (inactive)
8 | Cc1ccc2cc(C3C(C#N)=C(N)Oc4c3ccc3cccnc43)c(=O)[nH]c2c1 (stereo unspecified) | > 26 µM (inactive)
9 | CCc1cc[n+](C2=C([O-])c3ccccc3C(=O)/C2=N\S(=O)(=O)c2cccs2)cc1 | > 26 µM (inactive)
10 | Cc1sc2ncnc(NCC3COc4ccccc4O3)c2c1C (stereo unspecified) | > 26 µM (inactive)
11 | COc1ccc(-n2c(-c3ccc(Br)cc3)c[n+]3c2CCc2ccccc2-3)cc1 | > 26 µM (inactive)
12 | CCCCC(CC)CN=C(N)NC(N)=NCCCCCCN=C(N)NC(N)=NCC(CC)CCCC (stereo unspecified) | > 26 µM (inactive)
13 | C=C1CCc2c([nH]c3ccc(OCC(C)C)cc23)C1=O | > 26 µM (inactive)
14 | CCCOC(=O)/C(C(N)=NCc1ccccc1)=C(\O)OCCC | > 26 µM (inactive)
15 | CC(C)CC[n+]1ccn(C2=C([O-])c3ccccc3C(=O)/C2=N\S(=O)(=O)c2ccccc2)c1 | > 26 µM (inactive)
16 | CN1c2ccccc2N(C)C1(C)c1ccccc1 | > 26 µM (inactive)
17 | N=c1ccn(CC(=O)c2ccc(-c3ccccc3)cc2)cc1 | > 26 µM (inactive)
18 | COC(=O)c1cc(=O)n(CCc2ccccc2F)c(=Nc2ccc(F)c(Cl)c2)s1 | > 26 µM (inactive)
19 | Cc1cc(C(=O)C(C)OC(=O)c2ccc(NC(=O)CC#N)cc2)c(C)n1-c1ccc(OC(F)F)cc1 (stereo unspecified) | > 26 µM (inactive)
20 | NC(N)=N/N=C/c1ccc(N(c2ccccc2)c2ccccc2)cc1 | > 26 µM (inactive)
21 | CCCCC[n+]1ccn(C2=C([O-])c3ccccc3C(=O)/C2=N\S(=O)(=O)c2ccc(Cl)cc2)c1 | > 26 µM (inactive)
22 | CCCOC(=O)c1ccc(-[n+]2c(-c3ccccc3)cc(-c3ccccc3)cc2-c2ccccc2)cc1 | > 26 µM (inactive)
23 | CCC(C)(C)c1ccc(OCCCC[n+]2ccccc2)c(C(C)(C)CC)c1 | > 26 µM (inactive)

Row | SMILES | AC50
24 | CC(CNC(=O)c1ccc(OC2CCN(Cc3ccccn3)CC2)cc1)Oc1cccnc1 (stereo unspecified) | > 26 µM (inactive)
25 | C#CCOCCOCCOCCNc1nc(N2CCN(C(=O)CCCCCCCCCCNC(=O)[C@H](CCCCN)n3cc(CCO)nn3)CC2)nc(N2CCN(C(=O)CCCCCCCCCCNC(=O)[C@H](CCCCN)n3cc(C[C@@H](C)CC)nn3)CC2)n1 | > 26 µM (inactive)
26 | COc1cc(C(=O)Oc2ccccc2/C=N/NC(=O)c2ccc(C)c(Cl)c2)cc(OC)c1OC | > 26 µM (inactive)
27 | Cc1cc(C(=O)N/N=C/c2cc(N=Nc3ccccc3)ccc2O)n[nH]1 | > 26 µM (inactive)
28 | Cn1cccc1C1C=C(c2ccc(C(C)(C)C)cc2)Nc2ncnn21 (stereo unspecified) | > 26 µM (inactive)
29 | COc1ccc(-n2c(-c3ccc(Cl)cc3)c[n+]3c2CCc2ccccc2-3)cc1 | > 26 µM (inactive)
30 | O=C(Oc1c(CN2CCOCC2)cc(Cl)c2cccnc12)c1ccccc1Br | > 26 µM (inactive)
31 | CCOC(=O)N1CCN(S(=O)(=O)c2ccc(C(=O)NNc3nc4c(C)cc(C)cc4s3)cc2)CC1 | > 26 µM (inactive)
32 | CCC(=O)NC(c1ccc(C)cc1)c1cc(Cl)c2cccnc2c1O (stereo unspecified) | > 26 µM (inactive)
33 | Oc1ccccc1/C=N/Nc1nccnc1Cl | > 26 µM (inactive)
34 | Cc1ccc(C)c(NC(=O)c2ccccc2NS(=O)(=O)c2cc([N+](=O)[O-])ccc2C)c1 | > 26 µM (inactive)
35 | COc1ccc2c(c1)[nH]c1c(N3CCN(Cc4ccc5c(c4)OCO5)CC3)ncnc12 | > 26 µM (inactive)
36 | CN1/C(=C\C(=S)NC(=O)c2cccc(Br)c2)C(C)(C)c2ccccc21 | > 26 µM (inactive)
37 | CCOC(=O)c1c(C)[nH]c(C)c1C(=O)CSc1nc2ccccc2c(=O)n1-c1ccc(CC)cc1 | > 26 µM (inactive)
38 | Cn1c(SCC(=O)N/N=C/c2ccc([N+](=O)[O-])s2)nnc1-c1ccccc1 | > 26 µM (inactive)
39 | O=C(NCCOCCOCCNC(=O)c1cccnc1)c1cccnc1 | > 26 µM (inactive)
40 | CCC[N+]1(CC#CCC(c2ccccc2)c2ccccc2)CCCCC1 | > 26 µM (inactive)
41 | CCCCNc1c(-c2ccc(SC3CCCCC3)cc2)nc2ccccn12 | > 26 µM (inactive)
42 | Cc1ccc2[nH]c(C(=O)N/N=C/c3ccccc3O)c(C)c2c1 | > 26 µM (inactive)
43 | CCCCC(=O)NC(c1ccccc1)c1ccc2cccnc2c1O (stereo unspecified) | > 26 µM (inactive)
44 | COc1cccc2sc(Nc3nc(-c4ccccn4)cs3)nc12 | > 26 µM (inactive)
45 | CC(=O)c1ccccc1OCCOCCOc1ccccc1C(C)=O | > 26 µM (inactive)
46 | Cc1ccc(C(=O)NC(=S)/C=C2\N(C)c3ccccc3C2(C)C)cc1 | > 26 µM (inactive)
